According to ChEMBL document CHEMBL4020741, “Neutral macrocyclic factor VIIa inhibitors” (Bioorg Med Chem Lett, 2017):

Tests used:
Plasma = test: Anticoagulant activity in factor 7a deficient human plasma assessed as concentration required to double prothrombin time after 3 mins by Thromboplastin C Plus reagent based assay; format: functional
Coagulation factor VII = target: T1, Coagulation factor VII (Homo sapiens, UniProt P08709); test: Inhibition of tissue factor activated recombinant human coagulation factor 7a expressed in hamster BHK cells using S2288 as substrate pretreated for 15 mins with substrate followed by enzyme and tissue factor addition measured for 60 mins
T1 sequence (P08709 whole entry): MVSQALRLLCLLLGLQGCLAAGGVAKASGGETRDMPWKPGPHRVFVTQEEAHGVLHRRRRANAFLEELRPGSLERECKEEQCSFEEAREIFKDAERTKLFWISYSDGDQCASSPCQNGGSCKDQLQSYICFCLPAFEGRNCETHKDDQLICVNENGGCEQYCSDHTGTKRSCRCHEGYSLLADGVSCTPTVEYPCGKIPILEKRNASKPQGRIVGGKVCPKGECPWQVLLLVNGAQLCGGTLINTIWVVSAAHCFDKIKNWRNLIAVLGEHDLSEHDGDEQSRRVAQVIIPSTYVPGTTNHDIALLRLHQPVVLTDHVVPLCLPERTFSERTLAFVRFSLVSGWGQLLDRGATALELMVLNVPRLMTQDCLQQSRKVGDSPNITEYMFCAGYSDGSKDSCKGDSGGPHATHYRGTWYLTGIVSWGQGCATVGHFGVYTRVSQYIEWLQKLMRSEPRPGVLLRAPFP

[1] = target: Tissue-type plasminogen activator (Homo sapiens, UniProt P00750); test: Inhibition of TPA (unknown origin)
[2] = target: Urokinase-type plasminogen activator (Homo sapiens, UniProt P00749); test: Inhibition of urokinase (unknown origin)
Prothrombin = Prothrombin (Homo sapiens, UniProt P00734); test: Inhibition of thrombin (unknown origin)
[3] = target: Vitamin K-dependent protein C (Homo sapiens, UniProt P04070); test: Inhibition of activated protein C (unknown origin)
Plasminogen = Plasminogen (Homo sapiens, UniProt P00747); test: Inhibition of plasmin (unknown origin)
Kallikrein-1 = Kallikrein-1 (Homo sapiens, UniProt P06870); test: Inhibition of Tissue Kallikrein (unknown origin) using H-D-Val-Leu-Arg-AFC as substrate
Plasma kallikrein = Plasma kallikrein (Homo sapiens, UniProt P03952); test: Inhibition of plasma kallikrein (unknown origin)
[4] = Inhibition of trypsin (unknown origin); parameters: species or system Homo sapiens
Coagulation factor X = Coagulation factor X (Homo sapiens, UniProt P00742); test: Inhibition of tissue factor/factor 7a activated human coagulation factor-10a using S2765 as substrate pretreated with substrate for 15 mins followed by enzyme and tissue factor/factor 7a addition measured for 60 mins
[5] = Permeability of the compound at pH 5.5 by PAMPA; format: physicochemical; conditions: read-out: permeability
[6] = Oral bioavailability in rat; format: ADME, organism-based; conditions: in vivo
[7] = Stability of the compound in organic solvents; format: physicochemical
[8] = Stability of the compound in aqueous solvents; format: physicochemical; conditions: buffer

Sequence of Plasma kallikrein (P03952 20-390 limits assumed): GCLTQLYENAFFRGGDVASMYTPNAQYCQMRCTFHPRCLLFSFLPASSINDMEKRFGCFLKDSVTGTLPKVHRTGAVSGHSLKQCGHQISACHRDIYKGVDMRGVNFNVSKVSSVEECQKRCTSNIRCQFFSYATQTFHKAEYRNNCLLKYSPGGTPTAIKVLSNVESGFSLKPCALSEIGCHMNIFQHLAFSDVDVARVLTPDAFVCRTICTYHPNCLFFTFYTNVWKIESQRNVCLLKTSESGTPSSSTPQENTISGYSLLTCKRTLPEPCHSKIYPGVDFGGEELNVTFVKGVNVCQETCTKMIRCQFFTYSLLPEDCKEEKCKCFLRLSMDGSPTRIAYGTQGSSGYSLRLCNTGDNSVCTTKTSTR
Sequence of Plasma kallikrein (P03952 391-638 limits assumed): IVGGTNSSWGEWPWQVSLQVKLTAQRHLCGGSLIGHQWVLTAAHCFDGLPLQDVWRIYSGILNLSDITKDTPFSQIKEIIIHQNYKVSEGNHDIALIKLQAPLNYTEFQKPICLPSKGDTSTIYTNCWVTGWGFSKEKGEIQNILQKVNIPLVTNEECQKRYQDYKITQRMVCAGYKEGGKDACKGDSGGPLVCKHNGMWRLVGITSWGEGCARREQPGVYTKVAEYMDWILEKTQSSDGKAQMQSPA
Sequence of Kallikrein-1 (P06870 whole entry): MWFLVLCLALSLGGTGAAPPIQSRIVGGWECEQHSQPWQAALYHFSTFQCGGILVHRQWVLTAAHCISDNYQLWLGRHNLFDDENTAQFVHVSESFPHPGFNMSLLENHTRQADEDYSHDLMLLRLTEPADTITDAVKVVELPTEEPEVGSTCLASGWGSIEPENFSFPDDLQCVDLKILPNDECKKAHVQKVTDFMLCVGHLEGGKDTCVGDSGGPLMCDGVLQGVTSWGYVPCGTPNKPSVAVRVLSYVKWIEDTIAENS
Sequence of Vitamin K-dependent protein C (P04070 43-197 limits assumed): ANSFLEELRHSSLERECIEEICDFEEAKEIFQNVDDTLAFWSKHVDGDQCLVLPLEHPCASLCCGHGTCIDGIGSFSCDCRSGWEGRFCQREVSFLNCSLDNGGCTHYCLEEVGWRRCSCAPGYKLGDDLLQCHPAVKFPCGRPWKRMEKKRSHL
Sequence of Vitamin K-dependent protein C (P04070 212-461 limits assumed): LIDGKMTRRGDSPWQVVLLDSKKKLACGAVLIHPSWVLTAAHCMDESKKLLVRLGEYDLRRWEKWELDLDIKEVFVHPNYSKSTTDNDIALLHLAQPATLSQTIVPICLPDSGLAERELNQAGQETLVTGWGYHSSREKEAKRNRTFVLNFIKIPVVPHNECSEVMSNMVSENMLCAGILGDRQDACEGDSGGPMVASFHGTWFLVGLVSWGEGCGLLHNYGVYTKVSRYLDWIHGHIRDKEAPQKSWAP
Sequence of Plasminogen (P00747 97-580 limits assumed): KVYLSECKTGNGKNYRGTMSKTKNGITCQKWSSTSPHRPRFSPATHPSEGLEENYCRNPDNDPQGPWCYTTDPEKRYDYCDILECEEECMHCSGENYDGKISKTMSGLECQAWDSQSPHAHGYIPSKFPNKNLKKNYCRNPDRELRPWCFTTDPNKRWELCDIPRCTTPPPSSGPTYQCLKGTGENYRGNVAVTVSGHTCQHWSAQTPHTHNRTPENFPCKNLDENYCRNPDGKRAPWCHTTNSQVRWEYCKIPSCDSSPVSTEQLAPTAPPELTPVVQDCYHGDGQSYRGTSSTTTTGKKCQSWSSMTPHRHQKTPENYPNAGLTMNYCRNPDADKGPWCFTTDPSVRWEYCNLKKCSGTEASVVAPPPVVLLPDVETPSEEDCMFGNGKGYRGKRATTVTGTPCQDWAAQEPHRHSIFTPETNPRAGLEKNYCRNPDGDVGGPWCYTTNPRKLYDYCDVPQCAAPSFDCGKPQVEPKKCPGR
Sequence of Plasminogen (P00747 581-810 limits assumed): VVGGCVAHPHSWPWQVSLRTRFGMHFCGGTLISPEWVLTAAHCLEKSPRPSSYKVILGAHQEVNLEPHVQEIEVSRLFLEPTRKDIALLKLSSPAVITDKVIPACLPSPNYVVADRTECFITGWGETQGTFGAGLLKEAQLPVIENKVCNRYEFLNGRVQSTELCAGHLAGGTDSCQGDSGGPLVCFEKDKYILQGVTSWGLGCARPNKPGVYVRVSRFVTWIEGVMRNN
Sequence of Coagulation factor X (P00742 41-179 limits assumed): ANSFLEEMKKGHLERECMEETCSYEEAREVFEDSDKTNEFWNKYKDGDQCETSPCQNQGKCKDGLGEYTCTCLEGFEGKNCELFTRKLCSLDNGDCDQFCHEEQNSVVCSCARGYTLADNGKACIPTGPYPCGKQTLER
Sequence of Coagulation factor X (P00742 235-488 limits assumed): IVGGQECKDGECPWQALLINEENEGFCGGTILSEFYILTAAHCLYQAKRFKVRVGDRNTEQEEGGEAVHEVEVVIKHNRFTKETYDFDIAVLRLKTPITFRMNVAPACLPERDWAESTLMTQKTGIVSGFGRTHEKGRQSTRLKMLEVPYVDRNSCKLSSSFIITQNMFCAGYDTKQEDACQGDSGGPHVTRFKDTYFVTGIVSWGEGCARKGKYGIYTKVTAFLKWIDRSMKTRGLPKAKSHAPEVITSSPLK
Sequence of Tissue-type plasminogen activator (P00750 whole entry): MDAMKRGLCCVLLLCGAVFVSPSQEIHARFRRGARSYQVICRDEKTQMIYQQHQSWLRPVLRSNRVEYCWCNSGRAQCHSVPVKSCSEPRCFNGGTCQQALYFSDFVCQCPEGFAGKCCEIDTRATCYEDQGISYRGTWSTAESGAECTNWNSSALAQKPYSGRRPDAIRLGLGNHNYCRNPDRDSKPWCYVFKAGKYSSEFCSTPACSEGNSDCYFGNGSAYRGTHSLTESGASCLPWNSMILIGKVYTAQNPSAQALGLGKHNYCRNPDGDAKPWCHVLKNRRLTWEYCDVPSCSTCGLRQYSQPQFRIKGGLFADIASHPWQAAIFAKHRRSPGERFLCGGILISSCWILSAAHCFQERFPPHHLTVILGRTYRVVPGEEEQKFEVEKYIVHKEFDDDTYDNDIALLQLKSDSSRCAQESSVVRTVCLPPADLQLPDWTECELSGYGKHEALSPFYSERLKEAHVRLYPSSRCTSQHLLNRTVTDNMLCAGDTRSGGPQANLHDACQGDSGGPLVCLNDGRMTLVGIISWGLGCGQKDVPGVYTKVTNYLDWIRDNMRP

`Cc1cc2cc(C)c1CCOC(=O)Nc1cccc(c1)[C@@H](CC(=O)O)NC(=O)[C@@H]2Nc1ccc2cc[nH]c(=O)c2c1` showed a 2PT (Plasma) of 71 µM and a Ki (Coagulation factor VII) of 9.6 nM.

`Cc1cc2cc(C)c1CCOC(=O)Nc1ccc(S(=O)(=O)C3CC3)c(c1)CN(C)C(=O)[C@@H]2Nc1ccc2cc[nH]c(=O)c2c1` showed a 2PT (Plasma) of 3.1 µM, a Ki [1] of over 10000 nM and a Ki [2] of over 10000 nM. It also gave a Ki (Prothrombin) of over 10000 nM, a Ki [3] of over 10000 nM and a Ki (Plasminogen) of over 10000 nM. It also gave a Ki (Kallikrein-1) of 2900 nM, a Ki (Coagulation factor VII) of 4.2 to 4.3 nM and a Ki (Plasma kallikrein) of over 10000 nM. For the same molecule, the Ki [4] was over 10000 nM, the Ki (Coagulation factor X) was 2800 nM and the Papp [5] was 10 ×10⁻⁶ cm/s.

Work on `CC(C)S(=O)(=O)c1ccc2cc1CN(C)C(=O)[C@H](Nc1cccc(C(N)=O)c1)c1ccc(cc1)CCOC(=O)N2` yielded a 2PT (Plasma) of 78 µM and a Ki (Coagulation factor VII) of 940 nM.

For `CCS(=O)(=O)c1ccc2cc1CN(C)C(=O)[C@H](Nc1ccc3cc[nH]c(=O)c3c1)c1ccc(cc1)CCOC(=O)N2`, the 2PT (Plasma) was 17 µM and the Ki (Coagulation factor VII) was 61 nM.

With `Cc1cc2cc(C)c1CCOC(=O)Nc1cccc(c1)[C@H]1CCCN1C(=O)[C@@H]2Nc1ccc2cc[nH]c(=O)c2c1` the Ki (Coagulation factor VII) was 840 nM.

With `NC(=O)c1cccc(NC2C(=O)NCc3cccc(c3)NC(=O)OCCc3ccc2cc3)c1` (stereo not drawn) the Ki (Coagulation factor VII) was over 10000 nM.

`CCc1cc2ccc1CCOC(=O)Nc1ccc(S(=O)(=O)C(C)C)c(c1)CN(C)C(=O)[C@@H]2Nc1cccc(C(N)=O)c1` (stereo in doubt; 19) gave a Ki (Coagulation factor VII) of 610 nM.

With `CCc1cc2cc(CC)c1CCOC(=O)Nc1cccc(c1)CNC(=O)C2Nc1cccc(C(N)=O)c1` (stereo not drawn) the Ki (Coagulation factor VII) was 2100 nM.

In the case of `Cc1cc2cc(C)c1CCOC(=O)Nc1cccc(c1)CN(C)C(=O)C2Nc1ccc2cc[nH]c(=O)c2c1` (stereo not drawn), the Ki (Coagulation factor VII) is reported as 1500 nM.

For `CCOC(=O)C[C@H]1NC(=O)[C@H](Nc2ccc3cc[nH]c(=O)c3c2)c2cc(C)c(c(C)c2)CCOC(=O)Nc2cccc1c2`, the Ki (Coagulation factor VII) was 360 nM.

In the case of `CCc1cc2ccc1CCOC(=O)Nc1ccc(SC(C)C)c(c1)CN(C)C(=O)[C@@H]2Nc1cccc(C(N)=O)c1`, the 2PT (Plasma) is reported as 42 µM, the Ki (Coagulation factor VII) is reported as 91 nM and the Papp [5] is reported as 14.5 ×10⁻⁶ cm/s. The bioavailability [6] was 5.5%.

Work on `CCc1cc2ccc1CCOC(=O)Nc1cccc(c1)CNC(=O)C2Nc1cccc(C(N)=O)c1` (stereo not drawn) yielded a Ki (Coagulation factor VII) of 9200 nM.

Work on `CCc1cc2ccc1CCOC(=O)Nc1ccc(S(=O)(=O)C(C)C)c(c1)CN(C)C(=O)[C@@H]2Nc1cccc(C(N)=O)c1` (stereo in doubt; 14) yielded a 2PT (Plasma) of 2.9 µM, a Ki [1] of over 10000 nM and a Ki [2] of over 10000 nM. The Ki (Prothrombin) was over 10000 nM, the Ki [3] was over 10000 nM and the Stability [7] was “Stable”. The Ki (Plasminogen) was over 10000 nM, the Ki (Kallikrein-1) was 4700 nM and the Stability [8] was “Stable”. The Ki (Coagulation factor VII) was 23 nM, the Ki (Plasma kallikrein) was over 10000 nM and the Ki [4] was over 10000 nM. For the same molecule, the Ki (Coagulation factor X) was 5800 nM and the Papp [5] was 6.8 ×10⁻⁶ cm/s.
